The source of these data is US8673922B2, “Azaindazole compounds” (Bristol-Myers Squibb Company, priority 2010, dated 2014).

pIC50: −log10 of the molar value.

Assay [1] deals with T1, Human CYP17 (Homo sapiens, UniProt P05093).
T1 construct: expressed in transfected cells; host or cells: HEK2 (sic); microsomes prepared as a high-speed pellet
T1 sequence (P05093 1-508): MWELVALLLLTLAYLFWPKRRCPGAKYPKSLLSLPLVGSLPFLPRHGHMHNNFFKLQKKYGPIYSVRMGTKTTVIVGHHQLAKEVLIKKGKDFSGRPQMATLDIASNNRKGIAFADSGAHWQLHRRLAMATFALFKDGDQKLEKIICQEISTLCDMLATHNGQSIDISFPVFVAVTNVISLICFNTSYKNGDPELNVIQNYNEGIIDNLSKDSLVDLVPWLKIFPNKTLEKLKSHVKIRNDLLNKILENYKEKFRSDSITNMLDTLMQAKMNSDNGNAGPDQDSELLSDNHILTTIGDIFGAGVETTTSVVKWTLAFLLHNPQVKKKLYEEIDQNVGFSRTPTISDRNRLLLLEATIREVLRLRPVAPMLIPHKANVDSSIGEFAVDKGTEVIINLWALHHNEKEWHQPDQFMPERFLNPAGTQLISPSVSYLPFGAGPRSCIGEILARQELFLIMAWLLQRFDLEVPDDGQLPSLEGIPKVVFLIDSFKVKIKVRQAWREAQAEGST
Put plainly: CYP17 Total SPA Assay. The format is biochemical. As to conditions: microsomes from HEK2 cells stably transfected with CYP17; 3H-Pregnenolone 1 uM, NADPH 2 mM; 45 minutes at room temperature. As for the experimental part: The assays were performed in U-bottom 384-well optiplates. The final assay volume was 15 μl prepared from 7.5 μl additions of microsomes (prepared as a high-speed pellet from homogenized HEK2 cells stably transfected with CYP17), substrates (3 H-Pregnenolone and NADPH) and test compounds in assay buffer (50 mM Potassium phosphate pH 7.2, 10% glycerol). The reaction was initiated by the combination of the microsomes and substrates in wells containing compound. The reaction was incubated at room temperature for 45 minutes and terminated by adding 7.5 μl of 0.2N HCl to each well. Following an incubation period of 10 minutes, anti-DHEA-coated SPA beads were added to the terminated reaction. The plate was sealed and incubated overnight with shaking at 4° C. The beads were allowed to settle in the plate for 1 hour and the plate read on a Topcount (Perkin-Elmer) plate reader.
Inhibition data were calculated by comparison to no enzyme control reactions for 100% inhibition and vehicle-only reactions for 0% inhibition. The final concentration of reagents in the assays are NADPH, 2 mM; 3H-Pregnenolone, 1 uM; microsomes, 1.25 ug/ml; Anti-DHEA-SPA beads (0.125 mg/well) in 0.5% Triton X-100 and DMSO, 0.05%. Dose response curves were generated to determine the concentration required inhibiting 50% of enzyme activity (IC50). Compounds were dissolved at 10 mM in dimethylsulfoxide (DMSO) and evaluated at eleven concentrations, each in duplicate. IC50 values were derived by non-linear regression analysis.
Table 5 below lists the IC50 values for the following examples of this invention measured in the Total CYP17 SPA Assay hereinabove.

For assay [2], the system named is cynomolgus monkeys. Put plainly: 1-Day Cyno PK/PD Study. As to conditions: plasma, single oral dose 1 mg/Kg in 80% PEG-400/water, monitored over 24 hours. The format is in vivo, cynomolgus monkey. Here is the method:
Example 67 was formulated in 80% PEG-400/water at a volume of 1 mL/kg of monkey at a dose of 1 mg/kg. The formulation was then dosed orally at time=0 hours and blood samples were taken over a 24 hour period to monitor for drug exposure and testosterone levels. (♦) Example 67 (nM); (▪) testosterone (ng/dL).
• Animals: All procedures involving animals and their care were conducted in conformity with the guidelines that are in compliance with the Bristol-Myers Squibb Institutional Animal Care and Use Committee. Fully mature male cynomolgus monkeys (>4 yrs of age; 5-6 kg) were from an in-house colony. All the monkeys used had chronically implanted femoral vein access ports. For oral studies, all animals were fasted overnight prior to dosing and were fed 4 hr after dosing. […] The plasma fraction was immediately separated by centrifugation (14,000 rpm, 10 min, 4° C.), frozen on dry ice, and stored at −20° C. until the samples were analyzed. • Analysis of Tested Compound: Plasma samples were thawed and treated with two volumes of acetonitrile containing internal standard. After centrifugation to remove precipitated proteins, an aliquot of supernatant was analyzed by LC/MS/MS. […]

Broadly, the pIC50 is the negative decadic logarithm of the IC50, by convention in mol/L. Turning to `Cc1ncncc1-c1ccnc2c1cnn2-c1ccc(F)cc1` [Example 2, 1-(4-fluorophenyl)-4-(4-methylpyrimidin-5-yl)-1H-pyrazolo[3,4-b]pyridine], the pIC50 in assay [1] is 6.73.

As to `Nc1ncncc1-c1ccnc2c1cnn2-c1ccc(F)cc1` [Example 8, 5-(1-(4-fluorophenyl)-1H-pyrazolo[3,4-b]pyridin-4-yl)pyrimidin-4-amine], the pIC50 in assay [1] was 7.64.

Take `OC1(c2ccncc2-c2ccnc3c2cnn3-c2ccc(F)cc2)COC1` [Example 9, 3-(3-(1-(4-fluorophenyl)-1H-pyrazolo[3,4-b]pyridin-4-yl)pyridin-4-yl)oxetan-3-ol]: the negative-log IC50 (pIC50) in assay [1] was 8.23.

With `Cc1ccncc1-c1ccnc2c1cnn2C1CCOCC1` [Example 33, 4-(4-methylpyridin-3-yl)-1-(tetrahydro-2H-pyran-4-yl)-1H-pyrazolo[3,4-b]pyridine], the pIC50 in assay [1] is 6.41.

As to `Cc1ccncc1-c1ccnc2c1cnn2-c1ccc(C(F)(F)F)cn1` [Example 39, 4-(4-methylpyridin-3-yl)-1-(5-(trifluoromethyl)pyridin-2-yl)-1H-pyrazolo[3,4-b]pyridine], the pIC50 in assay [1] is 7.00.

Regarding `Cc1ccncc1-c1ccnc2c1cnn2-c1ncccc1Br` [Example 46, 1-(3-bromopyridin-2-yl)-4-(4-methylpyridin-3-yl)-1H-pyrazolo[3,4-b]pyridine], the pIC50 in assay [1] was 8.00.

For the compound `Cc1ccncc1-c1ccnc2c1cnn2Cc1c(F)cccc1Cl` [Example 55, 1-(2-chloro-6-fluorobenzyl)-4-(4-methylpyridin-3-yl)-1H-pyrazolo[3,4-b]pyridine], the pIC50 in assay [1] was 6.09.

`Cc1ncncc1-c1ccnc2c1cnn2-c1ccc(F)cc1F` [Example 64, 1-(2,4-difluorophenyl)-4-(4-methylpyrimidin-5-yl)-1H-pyrazolo[3,4-b]pyridine]: in assay [1], the pIC50 is 7.82.

In the case of `Nc1ncncc1-c1ccnc2c1cnn2-c1ccc(F)cc1F` [Example 67, 5-(1-(2,4-difluorophenyl)-1H-pyrazolo[3,4-b]pyridin-4-yl)pyrimidin-4-amine], the pIC50 in assay [1] is 8.24. In assay [2], this compound showed a testosterone levels of approximately 30 ng/dL.

With `Nc1ncncc1-c1ccnc2c1cnn2-c1ccc(F)c(F)c1F` [Example 70, 5-(1-(2,3,4-trifluorophenyl)-1H-pyrazolo[3,4-b]pyridin-4-yl)pyrimidin-4-amine], in assay [1], the pIC50 was 6.98.

On to `Nc1ncncc1-c1ccnc2c1cnn2-c1ccccn1` [Example 72, 5-(1-(pyridin-2-yl)-1H-pyrazolo[3,4-b]pyridin-4-yl)pyrimidin-4-amine], for which the negative-log IC50 (pIC50) in assay [1] is 6.28.

Regarding `Cc1ccncc1-c1ccnc2c1cnn2-c1cccc(S(N)(=O)=O)c1` [Example 80, 3-(4-(4-methylpyridin-3-yl)-1H-pyrazolo[3,4-b]pyridin-1-yl)benzenesulfonamide], in assay [1], the negative-log IC50 (pIC50) was 7.74.

Take `Cc1ccncc1-c1ccnc2c1cnn2CC(F)(F)F` [Example 84, 4-(4-methylpyridin-3-yl)-1-(2,2,2-trifluoroethyl)-1H-pyrazolo[3,4-b]pyridine]: in assay [1], the pIC50 is 7.05.

With `Cc1csc(-n2ncc3c(-c4cnccc4C)ccnc32)n1` [Example 88, 4-methyl-2-(4-(4-methylpyridin-3-yl)-1H-pyrazolo[3,4-b]pyridin-1-yl)thiazole], in assay [1], the pIC50 was 6.21.

For `Fc1ccc(-n2ncc3c(-c4cncnc4C(F)(F)F)ccnc32)c(F)c1` [Example 93, 1-(2,4-difluorophenyl)-4-(4-(trifluoromethyl)pyrimidin-5-yl)-1H-pyrazolo[3,4-b]pyridine], the pIC50 in assay [1] was 6.80.

As to `Nc1ncncc1-c1ccnc2c1cnn2-c1ccc(F)c(Cl)c1` [Example 96, 5-(1-(3-chloro-4-fluorophenyl)-1H-pyrazolo[3,4-b]pyridin-4-yl)-4-pyrimidinamine], in assay [1], the pIC50 is 6.15.

`Fc1ccc(-n2ncc3c(-c4cncnc4C(F)(F)F)ccnc32)cc1F` [Example 100, 1-(3,4-difluorophenyl)-4-(4-(trifluoromethyl)-5-pyrimidinyl)-1H-pyrazolo[3,4-b]pyridine]: the pIC50 in assay [1] is 6.49.

As for `Fc1ccc(-n2ncc3c(-c4cncnc4OCC(F)(F)F)ccnc32)cc1` [Example 106, 1-(4-fluorophenyl)-4-(4-(2,2,2-trifluoroethoxy)pyrimidin-5-yl)-1H-pyrazolo[3,4-b]pyridine], the pIC50 in assay [1] is 6.91.
